# Reference: ChEMBL document CHEMBL5661982 (Mol Cancer Ther, 2012)
# Calls of active or inactive are those of the source. The calls are words filed in the database; no cut-off is given here.
# Tests used:
# GTL 16 cell line [1] = assay: Antitumor activity against human GTL 16 cells xenografted in athymic nu/nu mouse assessed as tumor growth inhibition at 3 mg/kg, po administered for 16 days relative to control; conditions: GTL 16, po, 384 h, read-out: TGI
# [2] = Inhibition of c-Met R988C mutant phosphorylation in human NCI-H69 cells assessed as reduction in HGF-stimulated c-Met phosphorylation incubated for 1 hr by ELISA analysis; conditions: NCI-H69, 1 h
# U-87 MG [3] = conditions: Homo sapiens; U-87MG ATCC; dose 5-50 mg/kg, route po, time 3.0 day
# SLC34A2-ROS1 = SLC34A2-ROS1 (Homo sapiens, UniProt P08922); assay: Inhibition of SLC34A2-Ros phosphorylation in human HCC87 cells incubated for 1 hr by sandwich ELISA analysis
# Sequence of SLC34A2-ROS1 (P08922 whole entry): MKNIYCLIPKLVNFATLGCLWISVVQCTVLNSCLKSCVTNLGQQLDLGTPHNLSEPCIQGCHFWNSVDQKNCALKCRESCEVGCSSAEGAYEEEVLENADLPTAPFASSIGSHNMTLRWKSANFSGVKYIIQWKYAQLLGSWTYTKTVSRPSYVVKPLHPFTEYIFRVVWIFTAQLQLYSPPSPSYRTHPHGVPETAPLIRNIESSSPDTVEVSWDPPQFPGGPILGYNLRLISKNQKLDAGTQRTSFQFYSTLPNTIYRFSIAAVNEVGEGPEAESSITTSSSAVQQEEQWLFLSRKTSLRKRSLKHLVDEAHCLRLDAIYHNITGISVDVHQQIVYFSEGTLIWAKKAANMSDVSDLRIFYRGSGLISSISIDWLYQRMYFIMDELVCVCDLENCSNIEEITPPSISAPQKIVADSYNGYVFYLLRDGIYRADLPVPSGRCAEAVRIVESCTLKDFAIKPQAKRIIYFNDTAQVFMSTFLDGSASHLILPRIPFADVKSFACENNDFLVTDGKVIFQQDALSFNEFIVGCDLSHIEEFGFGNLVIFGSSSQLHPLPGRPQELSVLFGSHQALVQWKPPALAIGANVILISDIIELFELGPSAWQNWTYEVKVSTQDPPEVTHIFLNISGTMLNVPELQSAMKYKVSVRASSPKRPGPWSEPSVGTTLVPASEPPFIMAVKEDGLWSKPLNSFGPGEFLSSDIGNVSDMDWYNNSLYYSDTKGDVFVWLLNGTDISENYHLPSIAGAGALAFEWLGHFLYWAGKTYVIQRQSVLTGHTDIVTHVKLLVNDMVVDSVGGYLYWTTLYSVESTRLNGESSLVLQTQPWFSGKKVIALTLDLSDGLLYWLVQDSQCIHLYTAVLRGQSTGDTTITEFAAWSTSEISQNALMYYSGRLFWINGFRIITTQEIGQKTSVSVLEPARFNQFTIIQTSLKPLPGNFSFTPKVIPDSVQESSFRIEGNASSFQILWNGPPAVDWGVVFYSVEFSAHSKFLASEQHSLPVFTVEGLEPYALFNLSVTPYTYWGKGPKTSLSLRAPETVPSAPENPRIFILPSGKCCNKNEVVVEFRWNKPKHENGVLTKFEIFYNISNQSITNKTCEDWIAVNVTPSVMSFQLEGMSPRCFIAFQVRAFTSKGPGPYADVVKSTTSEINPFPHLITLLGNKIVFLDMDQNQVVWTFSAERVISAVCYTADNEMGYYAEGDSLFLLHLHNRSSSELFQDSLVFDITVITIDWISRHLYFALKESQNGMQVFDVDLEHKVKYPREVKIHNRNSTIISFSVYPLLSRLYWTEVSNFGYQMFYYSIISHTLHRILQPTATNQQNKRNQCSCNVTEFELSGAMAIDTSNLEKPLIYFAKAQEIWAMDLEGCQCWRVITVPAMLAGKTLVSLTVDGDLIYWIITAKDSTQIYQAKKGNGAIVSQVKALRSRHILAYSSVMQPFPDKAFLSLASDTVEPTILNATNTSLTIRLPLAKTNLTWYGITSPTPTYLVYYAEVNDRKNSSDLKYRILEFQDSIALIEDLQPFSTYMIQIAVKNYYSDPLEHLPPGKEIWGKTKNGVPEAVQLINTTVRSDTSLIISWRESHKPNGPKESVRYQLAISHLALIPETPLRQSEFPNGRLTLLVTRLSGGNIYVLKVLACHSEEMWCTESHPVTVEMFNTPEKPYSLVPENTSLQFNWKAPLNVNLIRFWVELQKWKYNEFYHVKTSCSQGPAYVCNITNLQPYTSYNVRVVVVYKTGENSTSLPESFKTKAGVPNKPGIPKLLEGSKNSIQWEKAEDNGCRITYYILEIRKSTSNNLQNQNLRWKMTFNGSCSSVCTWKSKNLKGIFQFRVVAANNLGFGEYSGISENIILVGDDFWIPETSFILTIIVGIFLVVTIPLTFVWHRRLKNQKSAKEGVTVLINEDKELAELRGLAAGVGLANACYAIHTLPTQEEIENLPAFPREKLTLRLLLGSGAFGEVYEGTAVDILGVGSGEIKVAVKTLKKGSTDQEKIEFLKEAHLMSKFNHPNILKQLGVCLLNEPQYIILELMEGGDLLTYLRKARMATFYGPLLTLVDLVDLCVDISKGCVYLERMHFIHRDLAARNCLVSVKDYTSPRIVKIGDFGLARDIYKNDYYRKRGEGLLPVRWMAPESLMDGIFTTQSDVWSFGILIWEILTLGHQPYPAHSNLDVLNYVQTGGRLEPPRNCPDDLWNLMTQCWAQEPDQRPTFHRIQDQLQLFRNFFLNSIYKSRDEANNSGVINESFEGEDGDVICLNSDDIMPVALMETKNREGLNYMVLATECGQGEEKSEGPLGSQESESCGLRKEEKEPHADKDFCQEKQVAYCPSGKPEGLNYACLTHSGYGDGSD
# Sequence of SLC34A2-ROS1 (O95436 whole entry, further chain): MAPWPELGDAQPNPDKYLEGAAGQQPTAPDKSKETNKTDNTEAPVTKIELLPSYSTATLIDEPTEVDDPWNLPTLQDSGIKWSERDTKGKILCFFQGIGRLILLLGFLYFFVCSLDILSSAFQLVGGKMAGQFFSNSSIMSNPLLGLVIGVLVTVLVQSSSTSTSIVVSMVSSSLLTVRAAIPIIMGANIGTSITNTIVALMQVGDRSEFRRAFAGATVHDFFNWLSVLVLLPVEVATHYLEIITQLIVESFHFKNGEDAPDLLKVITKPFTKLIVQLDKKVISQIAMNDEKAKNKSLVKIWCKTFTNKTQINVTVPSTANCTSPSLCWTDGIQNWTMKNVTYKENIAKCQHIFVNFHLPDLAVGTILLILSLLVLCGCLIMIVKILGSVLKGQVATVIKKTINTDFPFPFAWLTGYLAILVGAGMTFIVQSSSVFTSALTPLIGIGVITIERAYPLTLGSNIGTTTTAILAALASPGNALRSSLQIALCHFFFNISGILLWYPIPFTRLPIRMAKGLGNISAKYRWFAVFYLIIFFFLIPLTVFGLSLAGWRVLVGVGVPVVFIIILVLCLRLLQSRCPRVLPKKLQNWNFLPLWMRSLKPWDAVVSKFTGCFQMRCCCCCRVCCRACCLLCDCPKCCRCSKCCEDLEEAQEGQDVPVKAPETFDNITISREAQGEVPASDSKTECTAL
# GTL 16 [4] = conditions: Homo sapiens, dose 0.3-10 mg/kg, route po, time 4.0 day
# [5] = molecular target: Hepatocyte growth factor receptor (Mus musculus, UniProt P16056); assay: Inhibition of c-Met phosphorylation in HGF-stimulated mIMCD3 cells incubated for 1 hr by sandwich ELISA analysis
# Sequence of Hepatocyte growth factor receptor (P16056 whole entry): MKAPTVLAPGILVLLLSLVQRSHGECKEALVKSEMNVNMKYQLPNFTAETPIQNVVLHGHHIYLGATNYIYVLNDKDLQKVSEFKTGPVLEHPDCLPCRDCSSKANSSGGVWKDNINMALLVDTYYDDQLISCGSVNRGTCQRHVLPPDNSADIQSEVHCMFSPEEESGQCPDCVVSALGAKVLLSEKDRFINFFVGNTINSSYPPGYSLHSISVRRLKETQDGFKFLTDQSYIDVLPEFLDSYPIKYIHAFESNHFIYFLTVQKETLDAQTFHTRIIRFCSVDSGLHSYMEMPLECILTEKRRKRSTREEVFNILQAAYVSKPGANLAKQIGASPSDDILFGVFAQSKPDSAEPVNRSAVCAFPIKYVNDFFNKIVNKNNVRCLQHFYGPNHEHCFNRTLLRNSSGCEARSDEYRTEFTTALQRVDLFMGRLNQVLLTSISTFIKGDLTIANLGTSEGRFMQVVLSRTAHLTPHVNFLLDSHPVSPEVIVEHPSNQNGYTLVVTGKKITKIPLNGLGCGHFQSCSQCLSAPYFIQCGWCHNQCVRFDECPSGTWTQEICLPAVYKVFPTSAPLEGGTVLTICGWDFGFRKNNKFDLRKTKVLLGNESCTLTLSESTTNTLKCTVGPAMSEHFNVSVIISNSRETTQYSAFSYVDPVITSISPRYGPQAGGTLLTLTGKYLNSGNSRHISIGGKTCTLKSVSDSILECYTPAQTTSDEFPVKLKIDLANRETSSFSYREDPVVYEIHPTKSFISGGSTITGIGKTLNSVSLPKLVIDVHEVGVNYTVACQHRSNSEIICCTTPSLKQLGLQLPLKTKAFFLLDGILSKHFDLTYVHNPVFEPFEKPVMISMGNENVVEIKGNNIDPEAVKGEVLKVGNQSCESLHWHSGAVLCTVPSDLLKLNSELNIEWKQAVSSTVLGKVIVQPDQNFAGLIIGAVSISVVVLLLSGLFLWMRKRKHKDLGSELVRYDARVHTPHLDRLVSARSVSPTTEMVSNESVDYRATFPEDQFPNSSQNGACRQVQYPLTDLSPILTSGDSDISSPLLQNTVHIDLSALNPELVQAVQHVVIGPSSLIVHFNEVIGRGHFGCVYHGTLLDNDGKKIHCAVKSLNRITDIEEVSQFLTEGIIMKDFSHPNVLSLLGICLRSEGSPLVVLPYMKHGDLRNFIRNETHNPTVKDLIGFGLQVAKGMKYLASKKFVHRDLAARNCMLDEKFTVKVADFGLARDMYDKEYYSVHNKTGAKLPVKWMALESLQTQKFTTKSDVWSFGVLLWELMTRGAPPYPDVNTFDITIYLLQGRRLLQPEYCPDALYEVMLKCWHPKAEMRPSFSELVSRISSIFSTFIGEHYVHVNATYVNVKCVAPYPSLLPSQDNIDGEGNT
# NCI-H441 = assay: Inhibition of cell migration in HGF-stimulated human NCI-H441 cells over expressing c-Met incubated for 48 hrs by Matrigel based analysis; conditions: NCI-H441, 48 h
# GTL 16 [6] = conditions: Homo sapiens, dose 0.3-10 mg/kg, route po, time 4.0 day; remark: listed apart in the source
# HT-29 [7] = assay: Antitumor activity against human HT-29 cells transfected with RON shRNA xenografted in athymic nu/nu mouse assessed as tumor growth inhibition at 50 mg/kg/day, po for 21 days relative to control; conditions: HT-29, po, 504 h, read-out: TGI
# U-87 MG [8] = assay: Antiproliferative activity against human U-87 MG cells over expressing c-Met assessed as reduction in cell viability after 48 to 72 hrs by MTT assay
# NCI-H292 = assay: Antitumor activity against human NCI-H292 cells xenografted in athymic nu/nu mouse assessed as tumor growth inhibition at 50 mg/kg/day, po for 31 days relative to control; conditions: 744 h, read-out: TGI
# GTL 16 cell line [9] = assay: Antitumor activity against human GTL 16 cells xenografted in athymic nu/nu mouse assessed as tumor growth inhibition at 15 mg/kg, sc minipump administered for 14 days relative to control; conditions: GTL 16, 336 h, read-out: TGI
# HT-29 [10] = assay: Antitumor activity against human HT-29 cells xenografted in athymic nu/nu mouse assessed as tumor growth inhibition at 50 mg/kg/day, po for 21 days relative to control; conditions: HT-29, po, 504 h, read-out: TGI
# A549 = assay: Antiproliferative activity against human A549 cells over expressing c-Met assessed as reduction in cell viability after 48 to 72 hrs by MTT assay
# MDA-MB-231 = assay: Antitumor activity against human MDA-MB-231 cells xenografted in athymic nu/nu mouse assessed as tumor growth inhibition at 40 mg/kg/day, po for 14 days relative to control; conditions: MDA-MB-231, po, 336 h, read-out: TGI
# U-87MG ATCC [11] = conditions: Homo sapiens, dose 5-50 mg/kg, route po, time 3.0 day
# U-87MG ATCC [12] = conditions: Homo sapiens, dose 5-50 mg/kg, route po, time 3.0 day; remark: listed apart in the source
# DLD-1 = assay: Antiproliferative activity against human DLD-1 cells over expressing c-Met assessed as reduction in cell viability after 48 to 72 hrs by MTT assay
# HCT-116 = assay: Antiproliferative activity against human HCT-116 cells over expressing c-Met assessed as reduction in cell viability after 48 to 72 hrs by MTT assay
# HUVEC = assay: Antiproliferative activity against HGF-stimulated HUVEC cells assessed as reduction in cell viability after 48 to 72 hrs by MTT assay; conditions: Homo sapiens
# GTL 16 cell line [13] = assay: Antiproliferative activity against human GTL 16 cells over expressing c-Met assessed as reduction in cell viability after 48 to 72 hrs by MTT assay
# U-87 MG [14] = assay: Antitumor activity against human U-87 MG cells xenografted in athymic nu/nu mouse assessed as tumor growth inhibition at 1 mg/kg, po for 9 days relative to control; conditions: 216 h, read-out: TGI
# Insulin receptor = Insulin receptor (Homo sapiens, UniProt P06213); assay: Inhibition of Insulin receptor expressed in HEK293 cells assessed as reduction insulin-stimulated INSR phosphorylation incubated for 1 hr by sandwich ELISA analysis
# GTL 16 cell line [15] = assay: animal or person; conditions: Mus musculus, GTL 16, po, 384 h, read-out: TGI
# Description: Antitumor activity against human GTL 16 cells xenografted in athymic nu/nu mouse assessed as tumor growth inhibition at 30 mg/kg, po administered for 16 days relative to control
# U-87MG ATCC [16] = conditions: Homo sapiens, dose 5-50 mg/kg, route po, time 3.0 day; remark: listed apart in the source
# SW-620 = conditions: Homo sapiens, dose 40.0 mg/kg/day, route po, time 25.0 day
# U-87MG ATCC [17] = conditions: Homo sapiens, dose 5-50 mg/kg, route po, time 3.0 day; remark: listed apart in the source
# HCC1143 = assay: Antiproliferative activity against human HCC1143 cells over expressing c-Met assessed as reduction in cell viability after 48 to 72 hrs by MTT assay
# U-87MG ATCC [18] = conditions: Homo sapiens, dose 5-50 mg/kg, route po, time 3.0 day; remark: listed apart in the source
# U-87 MG [19] = assay: Antitumor activity against human U-87 MG cells xenografted in athymic nu/nu mouse assessed as tumor growth inhibition at 0.3 mg/kg, po for 9 days relative to control; conditions: 216 h, read-out: TGI
# HT-29 [20] = assay: Antiproliferative activity against human HT-29 cells over expressing c-Met assessed as reduction in cell viability after 48 to 72 hrs by MTT assay
# GTL 16 [21] = conditions: Homo sapiens, dose 0.3-10 mg/kg, route po, time 4.0 day; remark: listed apart in the source
# [22] = molecular target: Tyrosine-protein kinase Mer (Homo sapiens, UniProt Q12866); assay: Inhibition of MER expressed in HEK293 cells assessed as reduction in Gas6-stimulated MER phosphorylation incubated for 1 hr by sandwich ELISA analysis
# GTL 16 cell line [23] = assay: Antitumor activity against human GTL 16 cells xenografted in athymic nu/nu mouse assessed as tumor growth inhibition at 5 mg/kg, sc minipump administered for 14 days relative to control; conditions: GTL 16, 336 h, read-out: TGI
smiles,measurement,setting,value
OCCn1cc(-c2cnc3nnn(Cc4ccc5ncccc5c4)c3n2)cn1 [PF-04217903],inhibition in vivo at 3 mg/kg,GTL 16 cell line [1],74%
same,IC50,[2],6.4 nM
same,inhibition,U-87 MG [3],Active
same,IC50,SLC34A2-ROS1,> 10000 nM
same,inhibition,GTL 16 [4],Dose-Dependent Effect
same,IC50,[5],6.9 nM
same,IC50,NCI-H441,11 nM
same,inhibition,GTL 16 [6],Dose-Dependent Effect
same,inhibition in vivo at 50 mg/kg/day,HT-29 [7],77%
same,IC50,U-87 MG [8],> 10000 nM
same,inhibition in vivo at 50 mg/kg/day,NCI-H292,39%
same,inhibition in vivo at 15 mg/kg,GTL 16 cell line [9],93%
same,inhibition in vivo at 50 mg/kg/day,HT-29 [10],40%
same,IC50,A549,> 10000 nM
same,inhibition in vivo at 40 mg/kg/day,MDA-MB-231,43%
same,inhibition,U-87MG ATCC [11],inactive
same,inhibition,U-87MG ATCC [12],Active
same,IC50,DLD-1,> 10000 nM
same,IC50,HCT-116,> 10000 nM
same,IC50,HUVEC,12.3 nM
same,IC50,GTL 16 cell line [13],12 nM
same,inhibition in vivo at 1 mg/kg,U-87 MG [14],30%
same,IC50,Insulin receptor,> 10000 nM
same,inhibition in vivo at 30 mg/kg,GTL 16 cell line [15],100%
same,inhibition,U-87MG ATCC [16],Active
same,inhibition,SW-620,Active
same,inhibition,U-87MG ATCC [17],Active
same,IC50,HCC1143,> 10000 nM
same,inhibition,U-87MG ATCC [18],inactive
same,inhibition in vivo at 0.3 mg/kg,U-87 MG [19],20%
same,IC50,HT-29 [20],> 10000 nM
same,inhibition,GTL 16 [21],Dose-Dependent Effect
same,IC50,[22],> 10000 nM
same,inhibition in vivo at 5 mg/kg,GTL 16 cell line [23],75%
